Molecular target: T1, RORγt receptor protein (Homo sapiens, UniProt P51449)
T1 sequence (P51449 1-497 isoform P51449-2): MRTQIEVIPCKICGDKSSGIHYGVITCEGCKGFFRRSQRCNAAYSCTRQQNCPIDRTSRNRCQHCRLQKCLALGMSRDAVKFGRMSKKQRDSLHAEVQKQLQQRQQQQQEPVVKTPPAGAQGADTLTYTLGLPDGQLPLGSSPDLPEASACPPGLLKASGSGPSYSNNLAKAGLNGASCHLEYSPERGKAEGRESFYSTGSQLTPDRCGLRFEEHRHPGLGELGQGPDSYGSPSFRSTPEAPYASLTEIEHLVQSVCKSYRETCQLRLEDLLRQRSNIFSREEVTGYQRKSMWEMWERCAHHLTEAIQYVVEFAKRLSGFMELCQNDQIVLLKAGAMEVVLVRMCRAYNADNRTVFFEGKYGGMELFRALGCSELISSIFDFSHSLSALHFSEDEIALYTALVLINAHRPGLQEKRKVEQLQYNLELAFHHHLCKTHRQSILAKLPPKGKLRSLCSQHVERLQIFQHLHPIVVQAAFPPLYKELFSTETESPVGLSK
Assay: General RORγ binding assay (radioligand binding, [3H]25-hydroxy cholesterol displacement)
Settings: displacement of [3H]25-hydroxy cholesterol from 200 ng RORγt receptor protein, 1 h room temperature; test concentrations 0.01-3 μM, concentration for the % not stated
Protocol: General RORγ Binding Assay:
The RORγ binding of compounds of the present invention as described herein to RORγ was measured. For the radioligand binding assay, various concentrations of the test compounds were prepared (0.01 μM, 0.03 μM, 0.1 μM, 0.3 μM, 1 μM and 3 μM) and the samples were incubated with 200 ng of RORγt receptor protein in the presence of the [^3H]25-hydroxy cholesterol and the mixture was incubated at room temperature for 1 h. An extent of displacement of the radioligand was measured after harvesting the reaction mixture on filter plate reader using TopCount (Perkin Elmer) for radioactivity. The compounds of present invention were tested for RORγ binding using the above assay procedure and the results obtained are given in the below Table 1.

SMILES | ROR binding (%)
C[C@H]1[C@H](C)CC[C@]2(C(=O)O)CC[C@]3(C)C(=CC[C@@H]4[C@@]5(C)Cc6cccnc6C(C)(C)[C@@H]5CC[C@]43C)[C@H]12 [Example 84, (1S,2R,4aS,6aS,6bR,8aR,14aR,14bR,16bS)-1,2,3,4,4a,5,6,6a,6b,7,8,8a,9,14,14a,14b,15,16b-octadecahydro-1,2,6a, 6b,9,9,14a-heptamethylchryseno[1,2-g]quinoline-4a-carboxylic acid] | ++ (‘++’ corresponds to 50 to 70% binding of the compounds of present invention)
C[C@H]1[C@H](C)CC[C@]2(C(=O)O)CC[C@]3(C)C(=CC[C@@H]4[C@@]5(C)Cc6c(N7CCOCC7)ncnc6C(C)(C)[C@@H]5CC[C@]43C)[C@H]12 [Example 14, (1S,2R,4aS,6aS,6bR,8aR,14aR,14bR,16bS)-1,2,6a,6b,9,9,14a-heptamethyl-13-morpholino-1,2,3,4,4a,5,6,6a,6b,7,8,8a,9,14,14a,14b,15,16b-octadecahydrochryseno[1,2-g]quinazoline-4a-carboxylic acid] | ++ (‘++’ corresponds to 50 to 70% binding of the compounds of present invention)
Cc1ncc2c(n1)C(C)(C)[C@@H]1CC[C@]3(C)[C@H](CC=C4[C@@H]5[C@@H](C)[C@H](C)CC[C@]5(C(=O)O)CC[C@]43C)[C@@]1(C)C2 [Example 59, (1S,2R,4aS,6aS,6bR,8aR,14aR,14bR,16bS)-1,2,6a,6b,9,9,11,14a-octamethyl-1,2,3,4,4a,5,6,6a,6b,7,8,8a,9,14,14a,14b,15,16b-octadecahydrochryseno[1,2-g]quinazoline-4a-carboxylic acid] | +++ (‘+++’ corresponds to more than 80% binding of the compounds of present invention)
Cc1nc(N2CCCC2)c2c(n1)C(C)(C)[C@@H]1CC[C@]3(C)[C@H](CC=C4[C@@H]5[C@@H](C)[C@H](C)CC[C@]5(C(=O)O)CC[C@]43C)[C@@]1(C)C2 [Example 45, (1S,2R,4aS,6aS,6bR,8aR,14aR,14bR,16bS)-1,2,6a,6b,9,9,11,14a-octamethyl-13-(pyrrolidin-1-yl)-1,2,3,4,4a,5,6,6a,6b,7,8,8a,9,14,14a,14b,15,16b-octadecahydrochryseno[1,2-g]quinazoline-4a-carboxylic acid] | ++ (‘++’ corresponds to 50 to 70% binding of the compounds of present invention)
C[C@H]1[C@H](C)CC[C@]2(C(=O)O)CC[C@]3(C)C(=CC[C@@H]4[C@@]5(C)Cc6cc(C(N)=O)cnc6C(C)(C)[C@@H]5CC[C@]43C)[C@H]12 [Example 94, (1S,2R,4aS,6aS,6bR,8aR,14aR,14bR,16bS)-12-carbamoyl-1,2,3,4,4a,5,6,6a,6b,7,8,8a,9,14,14a,14b,15,16b-octadecahydro-1,2,6a,6b,9,9,14a-heptamethylchryseno[1,2-g]quinoline-4a-carboxylic acid] | ++ (‘++’ corresponds to 50 to 70% binding of the compounds of present invention)
C[C@H]1[C@H](C)CC[C@]2(C(=O)O)CC[C@]3(C)C(=CC[C@@H]4[C@@]5(C)Cc6cncnc6C(C)(C)[C@@H]5CC[C@]43C)[C@H]12 [Example 6, (1S,2R,4aS,6aS,6bR,8aR,14aR,14bR,16bS)-1,2,6a,6b,9,9,14a-heptamethyl-1,2,3,4,4a,5,6,6a,6b,7,8,8a,9,14,14a,14b,15,16b-octadecahydrochryseno[1,2-g]quinazoline-4a-carboxylic acid] | +++ (‘+++’ corresponds to more than 80% binding of the compounds of present invention)
Cc1nc(N2CCOCC2)c2c(n1)C(C)(C)[C@@H]1CC[C@]3(C)[C@H](CC=C4[C@@H]5[C@@H](C)[C@H](C)CC[C@]5(C(=O)O)CC[C@]43C)[C@@]1(C)C2 [Example 55, (1S,2R,4aS,6aS,6bR,8aR,14aR,14bR,16bS)-1,2,6a,6b,9,9,11,14a-octamethyl-13-morpholino-1,2,3,4,4a,5,6,6a,6b,7,8,8a,9,14,14a,14b,15,16b-octadecahydrochryseno[1,2-g]quinazoline-4a-carboxylic acid] | ++ (‘++’ corresponds to 50 to 70% binding of the compounds of present invention)
COc1ncnc2c1C[C@]1(C)[C@H]3CC=C4[C@@H]5[C@@H](C)[C@H](C)CC[C@]5(C(=O)O)CC[C@@]4(C)[C@]3(C)CC[C@H]1C2(C)C [Example 23, (1S,2R,4aS,6aS,6bR,8aR,14aR,14bR,16bS)-13-methoxy-1,2,6a,6b,9,9,14a-heptamethyl-1,2,3,4,4a,5,6,6a,6b,7,8,8a,9,14,14a,14b,15,16b-octadecahydrochryseno[1,2-g]quinazoline-4a-carboxylic acid] | ++ (‘++’ corresponds to 50 to 70% binding of the compounds of present invention)
Cc1nc(O)c2c(n1)C(C)(C)[C@@H]1CC[C@]3(C)[C@H](CC=C4[C@@H]5[C@@H](C)[C@H](C)CC[C@]5(C(=O)O)CC[C@]43C)[C@@]1(C)C2 [Example 31, (1S,2R,4aS,6aS,6bR,8aR,14aR,14bR,16bS)-13-hydroxy-1,2,6a,6b,9,9,11,14a-octamethyl-1,2,3,4,4a,5,6,6a,6b,7,8,8a,9,14,14a,14b,15,16b-octadecahydrochryseno[1,2-g]quinazoline-4a-carboxylic acid] | ++ (‘++’ corresponds to 50 to 70% binding of the compounds of present invention)
C[C@H]1[C@H](C)CC[C@]2(C(=O)O)CC[C@]3(C)C(=CC[C@@H]4[C@@]5(C)Cc6cnc(S(C)(=O)=O)nc6C(C)(C)[C@@H]5CC[C@]43C)[C@H]12 [Example 81, (1S,2R,4aS,6aS,6bR,8aR,14aR,14bR,16bS)-1,2,6a,6b,9,9,14a-heptamethyl-11-(methylsulfonyl)-1,2,3,4,4a,5,6,6a,6b,7,8,8a,9,14,14a,14b,15,16b-octadecahydrochryseno [1,2-g]quinazoline-4a-carboxylic acid] | +++ (‘+++’ corresponds to more than 80% binding of the compounds of present invention)
Cc1nc(N(C)C)c2c(n1)C(C)(C)[C@@H]1CC[C@]3(C)[C@H](CC=C4[C@@H]5[C@@H](C)[C@H](C)CC[C@]5(C(=O)O)CC[C@]43C)[C@@]1(C)C2 [Example 38, (1S,2R,4aS,6aS,6bR,8aR,14aR,14bR,16bS)-13-(dimethylamino)-1,2,6a,6b,9,9,11,14a-octamethyl-1,2,3,4,4a,5,6,6a,6b,7,8,8a,9,14,14a,14b,15,16b-octadecahydrochryseno[1,2-g]quinazoline-4a-carboxylic acid] | ++ (‘++’ corresponds to 50 to 70% binding of the compounds of present invention)
CCS(=O)(=O)c1ncc2c(n1)C(C)(C)[C@@H]1CC[C@]3(C)[C@H](CC=C4C5[C@@H](C)[C@H](C)CC[C@]5(C(=O)O)CC[C@]43C)[C@@]1(C)C2 (stereo partly drawn) [Example 78, (1S,2R,4aS,6aS,6bR,8aR,14aR,14bR)-11-(ethylsulfonyl)-1,2,6a,6b,9,9,14a-heptamethyl-1,2,3,4,4a,5,6,6a,6b,7,8,8a,9,14,14a,14b,15,16b-octadecahydrochryseno[1,2-g]quinazoline-4a-carboxylic acid] | +++ (‘+++’ corresponds to more than 80% binding of the compounds of present invention)
C[C@H]1[C@H](C)CC[C@]2(C(=O)O)CC[C@]3(C)C(=CC[C@@H]4[C@@]5(C)Cc6c(N(C)C)ncnc6C(C)(C)[C@@H]5CC[C@]43C)[C@H]12 [Example 27, (1S,2R,4aS,6aS,6bR,8aR,14aR,14bR,16bS)-13-(dimethylamino)-1,2,6a,6b,9,9,14a-hepta methyl-1,2,3,4,4a,5,6,6a,6b,7,8,8a,9,14,14a,14b,15,16b-octadecahydrochryseno[1,2-g]quinazoline-4a-carboxylic acid] | ++ (‘++’ corresponds to 50 to 70% binding of the compounds of present invention)
